Data taken from patent US9302999B2, “Substituted triazoles as herbicides” (E. I. DU PONT DE NEMOURS AND COMPANY, priority 2012, dated 2016).

Test system: barnyardgrass (Echinochloa crus-galli)
Test: Test B flooded paddy: barnyardgrass
Assay type: in vivo
Conditions: Flood, applied to paddy water at 2-leaf stage, visually evaluated after 13 to 15 days
How it was run: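 Plants were grown to the 2-leaf stage, then pots were flooded to 3 cm above the soil and compounds were applied directly into the paddy water. Water depth was held for the whole test; after 13 to 15 days in a greenhouse, injury was visually rated against untreated controls (0 = no effect, 100 = complete control).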

Row | Structure (SMILES) | Plant response rating, Barnyardgrass (0 to 100 scale, 0 is no effect, 100 is complete control) (250 g ai/ha) | Plant response rating, Barnyardgrass (0 to 100 scale, 0 is no effect, 100 is complete control) (125 g ai/ha)
1 | CCCc1nn(-c2ccc(F)cc2)nc1Cc1ccnc(C(F)(F)F)c1 [Compound 153] | 80 | –
2 | Cc1nn(-c2ccc(C(F)(F)F)c(F)c2)nc1Cc1ccnc(C(F)(F)F)c1 [Compound 162] | – | 70
3 | CCc1nn(-c2ccc(F)cc2)nc1Oc1ccnc(C(F)(F)F)c1 [Compound 166] | – | 70
4 | CCCc1nn(-c2ccc(C(F)(F)F)c(F)c2)nc1Oc1ccnc(C(F)(F)F)c1 [Compound 185] | 90 | –
5 | CCOc1nn(-c2ccc(Br)cc2)nc1Cc1ccnc(C(F)(F)F)c1 [Compound 189] | – | 0
